Tests used:
Assay in all cases: relative viability (nuclei count vs DMSO), 5 days (fraction); higher = more cells survive
NCI-H838 = test system: NCI-H838
Procedure, shortened: (§1)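 Values are medians from duplicate plates. Each reflects relative viability, defined as the nuclei count of treated wells over that of vehicle wells. Lung cancer cell lines in 1536-well plates were pin-tool dosed one day after seeding with one drug alone or with a fixed anchor-drug dose plus five library-drug doses (not always all listed) in √10 steps, then fixed, stained and imaged at 4× after 5 days.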

NCI-H1666 = test system: NCI-H1666
Procedure, shortened: as §1

HCC-44 = test system: HCC-44
Procedure, shortened: as §1

COR-L23 = test system: COR-L23
Procedure, shortened: as §1

NCI-H1792 = test system: NCI-H1792
Procedure, shortened: as §1

NCI-H1437 = test system: NCI-H1437
Procedure, shortened: as §1

NCI-H650 = test system: NCI-H650
Procedure, shortened: as §1

HCC-15 = test system: HCC-15
Procedure, shortened: as §1

BEN = test system: BEN
Procedure, shortened: as §1

A-427 = test system: A-427
Procedure, shortened: as §1

EKVX = test system: EKVX
Procedure, shortened: as §1

NCI-H23 = test system: NCI-H23
Procedure, shortened: as §1

SK-MES-1 = test system: SK-MES-1
Procedure, shortened: as §1

NCI-H441 = test system: NCI-H441
Procedure, shortened: as §1

HARA = test system: HARA
Procedure, shortened: as §1

HCC-827 = test system: HCC-827
Procedure, shortened: as §1

NCI-H596 = test system: NCI-H596
Procedure, shortened: as §1

NCI-H358 = test system: NCI-H358
Procedure, shortened: as §1

NCI-H1650 = test system: NCI-H1650
Procedure, shortened: as §1

NCI-H1975 = test system: NCI-H1975
Procedure, shortened: as §1

201T = test system: 201T
Procedure, shortened: as §1

Structure (SMILES): COc1nc(C)cnc1NS(=O)(=O)c1cccnc1-c1ccc(-c2nnco2)cc1 [Zibotentan] + CS(=O)(=O)N1CCN(Cc2cc3nc(-c4cccc5[nH]ncc45)nc(N4CCOCC4)c3s2)CC1 [Pictilisib] (partner 1 µM)
- relative viability (NCI-H838; first compound 0.08 µM): 0.451
- relative viability (NCI-H838; first compound 0.253 µM): 0.406
- relative viability (NCI-H838; first compound 0.8 µM): 0.582
- relative viability (NCI-H838; first compound 2.53 µM): 0.518
- relative viability (NCI-H1666; first compound 0.08 µM): 0.553
- relative viability (NCI-H1666; first compound 0.253 µM): 0.361
- relative viability (NCI-H1666; first compound 0.8 µM): 0.467
- relative viability (NCI-H1666; first compound 2.53 µM): 0.429
- relative viability (HCC-44; first compound 0.08 µM): 0.591
- relative viability (HCC-44; first compound 0.253 µM): 0.625
- relative viability (HCC-44; first compound 0.8 µM): 0.607
- relative viability (HCC-44; first compound 2.53 µM): 0.784
- relative viability (COR-L23; first compound 0.08 µM): 0.728
- relative viability (COR-L23; first compound 0.253 µM): 0.662
- relative viability (COR-L23; first compound 0.8 µM): 0.757
- relative viability (COR-L23; first compound 2.53 µM): 0.921
- relative viability (NCI-H1792; first compound 0.08 µM): 0.275
- relative viability (NCI-H1792; first compound 0.253 µM): 0.234
- relative viability (NCI-H1792; first compound 0.8 µM): 0.257
- relative viability (NCI-H1792; first compound 2.53 µM): 0.246
- relative viability (NCI-H1437; first compound 0.08 µM): 0.462
- relative viability (NCI-H1437; first compound 0.253 µM): 0.334
- relative viability (NCI-H1437; first compound 0.8 µM): 0.366
- relative viability (NCI-H1437; first compound 2.53 µM): 0.582
- relative viability (NCI-H650; first compound 0.08 µM): 0.921
- relative viability (NCI-H650; first compound 0.253 µM): 0.773
- relative viability (NCI-H650; first compound 0.8 µM): 0.743
- relative viability (NCI-H650; first compound 2.53 µM): 0.821
- relative viability (HCC-15; first compound 0.08 µM): 0.763
- relative viability (HCC-15; first compound 0.253 µM): 0.667
- relative viability (HCC-15; first compound 0.8 µM): 0.687
- relative viability (HCC-15; first compound 2.53 µM): 0.817
- relative viability (BEN; first compound 0.08 µM): 0.652
- relative viability (BEN; first compound 0.253 µM): 0.448
- relative viability (BEN; first compound 0.8 µM): 0.55
- relative viability (BEN; first compound 2.53 µM): 0.552
- relative viability (A-427; first compound 0.08 µM): 0.909
- relative viability (A-427; first compound 0.253 µM): 0.733
- relative viability (A-427; first compound 0.8 µM): 0.68
- relative viability (A-427; first compound 2.53 µM): 0.751
- relative viability (EKVX; first compound 0.08 µM): 0.465
- relative viability (EKVX; first compound 0.253 µM): 0.451
- relative viability (EKVX; first compound 0.8 µM): 0.439
- relative viability (EKVX; first compound 2.53 µM): 0.453
- relative viability (NCI-H23; first compound 0.08 µM): 0.403
- relative viability (NCI-H23; first compound 0.253 µM): 0.462
- relative viability (NCI-H23; first compound 0.8 µM): 0.556
- relative viability (NCI-H23; first compound 2.53 µM): 0.58
- relative viability (SK-MES-1; first compound 0.08 µM): 0.344
- relative viability (SK-MES-1; first compound 0.253 µM): 0.356
- relative viability (SK-MES-1; first compound 0.8 µM): 0.388
- relative viability (SK-MES-1; first compound 2.53 µM): 0.428
- relative viability (NCI-H441; first compound 0.08 µM): 0.518
- relative viability (NCI-H441; first compound 0.253 µM): 0.39
- relative viability (NCI-H441; first compound 0.8 µM): 0.545
- relative viability (NCI-H441; first compound 2.53 µM): 0.632
- relative viability (HARA; first compound 0.08 µM): 0.443
- relative viability (HARA; first compound 0.253 µM): 0.438
- relative viability (HARA; first compound 0.8 µM): 0.351
- relative viability (HARA; first compound 2.53 µM): 0.57
- relative viability (HCC-827; first compound 0.08 µM): 0.95
- relative viability (HCC-827; first compound 0.253 µM): 0.846
- relative viability (HCC-827; first compound 0.8 µM): 0.964
- relative viability (HCC-827; first compound 2.53 µM): 0.956
- relative viability (NCI-H596; first compound 0.08 µM): 0.446
- relative viability (NCI-H596; first compound 0.253 µM): 0.417
- relative viability (NCI-H596; first compound 0.8 µM): 0.385
- relative viability (NCI-H596; first compound 2.53 µM): 0.428
- relative viability (NCI-H358; first compound 0.08 µM): 0.318
- relative viability (NCI-H358; first compound 0.8 µM): 0.395
- relative viability (NCI-H358; first compound 2.53 µM): 0.378
- relative viability (NCI-H1650; first compound 0.08 µM): 0.675
- relative viability (NCI-H1650; first compound 0.8 µM): 0.638
- relative viability (NCI-H1650; first compound 2.53 µM): 0.658
- relative viability (NCI-H1975; first compound 0.08 µM): 0.311
- relative viability (NCI-H1975; first compound 0.253 µM): 0.262
- relative viability (NCI-H1975; first compound 0.8 µM): 0.293
- relative viability (NCI-H1975; first compound 2.53 µM): 0.299
- relative viability (201T; first compound 0.08 µM): 0.725
- relative viability (201T; first compound 0.253 µM): 0.599
- relative viability (201T; first compound 0.8 µM): 0.628
- relative viability (201T; first compound 2.53 µM): 0.711
